The data set in a line: Measurement of porosity (KOPTRI). Type of data set: physicochemical. From the text:
Porosity measurement for the samples prepared by the present applicant was requested from the Korea Polymer Testing & Research Institute (KOPTRI), an authorized international testing agency.

Take `O=P1(N(CCCl)CCCl)NCCCO1` (stereo not drawn) [Comparison 4, 2-[bis(2-chloroethyl)amino]tetrahydro-2H-1,3,2-oxazaphosphorin-2-oxide]: the Apparent density is 1.31 g/mL and the Porosity is given as 5.24%. This compound also showed an Average diameter (pore size) of 0.02 μm.

These data come from patent US20180104264A1, “Method for Preparing Lyophilized Organic Solvent-Free Cyclophosphamide” (KOREA UNITED PHARM. INC., priority 2016, published 2018).
